Assay results taken from patent US10131652B2, “Pyrimidinyloxy benzene derivatives as herbicides” (E. I. DU PONT DE NEMOURS AND COMPANY, priority 2014, dated 2018).
Read-outs that look alike come from different tables or passages of the source.

What was measured:
Assay in all cases: Test F pre-/postemergence plant response
Format in all cases: in vivo
[1] = system: arrowleaf sida (Sida rhombifolia); details: Sida rhombifolia, scale 0 to 100, read-out: Plant response rating, Arrowleaf Sida
Outline: (§1)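 Seeds were sown in silt loam soil and sprayed preemergence; separately, plants at the 1- to 4-leaf stage (2 to 18 cm) received postemergence sprays. Test chemicals were in a non-phytotoxic solvent mixture with surfactant. After 14 to 21 days in a greenhouse, injury was visually rated 0 (no effect) to 100 (complete control) against untreated controls.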

[2] = system: barnyardgrass (Echinochloa crus-galli); details: Echinochloa crus-galli, scale 0 to 100, read-out: Plant response rating, Barnyardgrass
Outline: as §1

[3] = system: dayflower (Virginia (VA) dayflower, Commelina virginica); details: Commelina virginica, scale 0 to 100, read-out: Plant response rating, Dayflower, VA
Outline: as §1

[4] = system: field bindweed (Convolvulus arvensis); details: Convolvulus arvensis, scale 0 to 100, read-out: Plant response rating, Field Bindweed
Outline: as §1

[5] = system: giant foxtail (Setaria faberii); details: Setaria faberi, pre-emergence, scale 0 to 100, read-out: Plant response rating, Foxtail, Giant
Outline: as §1

[6] = system: goosegrass (Eleusine indica); details: Eleusine indica, pre-emergence, scale 0 to 100, read-out: Plant response rating, Goosegrass
Outline: as §1

[7] = system: hairy beggarticks (Bidens pilosa); details: Bidens pilosa, scale 0 to 100, read-out: Plant response rating, Beggarticks
Outline: as §1

[8] = system: johnsongrass (Sorghum halepense); details: Sorghum halepense, pre-emergence, scale 0 to 100, read-out: Plant response rating, Johnsongrass
Outline: as §1

[9] = system: large (Lg) crabgrass (Digitaria sanguinalis); details: Digitaria sanguinalis, pre-emergence, scale 0 to 100, read-out: Plant response rating, Crabgrass, Large
Outline: as §1

[10] = system: sandbur (southern sandbur, Cenchrus echinatus); details: Cenchrus echinatus, scale 0 to 100, read-out: Plant response rating, Sandbur
Outline: as §1

soybean (Glycine max) = details: Glycine max, scale 0 to 100, read-out: Plant response rating, Soybean
Outline: as §1

[11] = system: surinam grass (Brachiaria decumbens); details: Urochloa decumbens, pre-emergence, scale 0 to 100, read-out: Plant response rating, Surinam Grass
Outline: as §1

[12] = system: velvetleaf (Abutilon theophrasti); details: Abutilon theophrasti, pre-emergence, scale 0 to 100, read-out: Plant response rating, Velvetleaf
Outline: as §1

[13] = system: waterhemp (common waterhemp, Amaranthus rudis); details: Amaranthus tuberculatus, scale 0 to 100, read-out: Plant response rating, Waterhemp
Outline: as §1

[14] = system: wild poinsettia (Euphorbia heterophylla); details: Euphorbia heterophylla, scale 0 to 100, read-out: Plant response rating, Poinsettia, Wild
Outline: as §1

[15] = system: yellow nutsedge (Cyperus esculentus); details: Cyperus, pre-emergence, scale 0 to 100, read-out: Plant response rating, Nutsedge, Yellow
Outline: as §1

[16] = post-emergence, 16 g ai/ha Postemergence
[17] = post-emergence, 31 g ai/ha Postemergence
[18] = post-emergence, 62 g ai/ha Postemergence
[19] = post-emergence, 125 g ai/ha Postemergence
[20] = pre-emergence, 16 g ai/ha Preemergence
[21] = pre-emergence, 31 g ai/ha Preemergence
[22] = pre-emergence, 62 g ai/ha Preemergence
[23] = pre-emergence, 125 g ai/ha Preemergence

Fc1cccc(Oc2ncc(Br)cn2)c1-c1cc(C(F)F)no1 [Compound 145, 5-bromo-2-[2-[3-(difluoromethyl)-5-isoxazolyl]-3-fluorophenoxy]pyrimidine]
pest or weed control at 16 g/ha [1, 16]: 95%
pest or weed control at 31 g/ha [1, 17]: 95%
pest or weed control at 62 g/ha [1, 18]: 98%
pest or weed control at 125 g/ha [1, 19]: 95%
pest or weed control at 16 g/ha [1, 20]: 65%
pest or weed control at 31 g/ha [1, 21]: 90%
pest or weed control at 62 g/ha [1, 22]: 98%
pest or weed control at 125 g/ha [1, 23]: 98%
pest or weed control at 16 g/ha [2, 16]: 10%
pest or weed control at 31 g/ha [2, 17]: 25%
pest or weed control at 62 g/ha [2, 18]: 50%
pest or weed control at 125 g/ha [2, 19]: 70%
pest or weed control at 16 g/ha [2, 20]: 0%
pest or weed control at 31 g/ha [2, 21]: 5%
pest or weed control at 62 g/ha [2, 22]: 30%
pest or weed control at 125 g/ha [2, 23]: 75%
pest or weed control at 16 g/ha [3, 16]: 50%
pest or weed control at 31 g/ha [3, 17]: 60%
pest or weed control at 62 g/ha [3, 18]: 75%
pest or weed control at 125 g/ha [3, 19]: 85%
pest or weed control at 16 g/ha [3, 20]: 0%
pest or weed control at 31 g/ha [3, 21]: 0%
pest or weed control at 62 g/ha [3, 22]: 35%
pest or weed control at 125 g/ha [3, 23]: 70%
pest or weed control at 16 g/ha [4, 16]: 70%
pest or weed control at 31 g/ha [4, 17]: 75%
pest or weed control at 62 g/ha [4, 18]: 80%
pest or weed control at 125 g/ha [4, 19]: 90%
pest or weed control at 16 g/ha [4, 20]: 0%
pest or weed control at 31 g/ha [4, 21]: 50%
pest or weed control at 62 g/ha [4, 22]: 65%
pest or weed control at 125 g/ha [4, 23]: 95%
pest or weed control at 16 g/ha ([5]; 16 g ai/ha Preemergence): 0%
pest or weed control at 31 g/ha ([5]; 31 g ai/ha Preemergence): 65%
pest or weed control at 62 g/ha ([5]; 62 g ai/ha Preemergence): 85%
pest or weed control at 125 g/ha ([5]; 125 g ai/ha Preemergence): 100%
pest or weed control at 16 g/ha ([6]; 16 g ai/ha Preemergence): 0%
pest or weed control at 31 g/ha ([6]; 31 g ai/ha Preemergence): 70%
pest or weed control at 125 g/ha ([6]; 125 g ai/ha Preemergence): 95%
pest or weed control at 62 g/ha ([6]; Preemergence): 80%
pest or weed control at 16 g/ha [7, 16]: 55%
pest or weed control at 31 g/ha [7, 17]: 50%
pest or weed control at 62 g/ha [7, 18]: 65%
pest or weed control at 125 g/ha [7, 19]: 70%
pest or weed control at 16 g/ha [7, 20]: 0%
pest or weed control at 31 g/ha [7, 21]: 35%
pest or weed control at 62 g/ha [7, 22]: 30%
pest or weed control at 125 g/ha [7, 23]: 25%
pest or weed control at 16 g/ha ([8]; 16 g ai/ha Preemergence): 0%
pest or weed control at 31 g/ha ([8]; 31 g ai/ha Preemergence): 20%
pest or weed control at 125 g/ha ([8]; 125 g ai/ha Preemergence): 85%
pest or weed control at 62 g/ha ([8]; Preemergence): 100%
pest or weed control at 16 g/ha ([9]; 16 g ai/ha Preemergence): 10%
pest or weed control at 31 g/ha ([9]; 31 g ai/ha Preemergence): 95%
pest or weed control at 62 g/ha ([9]; 62 g ai/ha Preemergence): 98%
pest or weed control at 125 g/ha ([9]; 125 g ai/ha Preemergence): 100%
pest or weed control at 16 g/ha [10, 16]: 5%
pest or weed control at 31 g/ha [10, 17]: 5%
pest or weed control at 62 g/ha [10, 18]: 5%
pest or weed control at 125 g/ha [10, 19]: 15%
pest or weed control at 16 g/ha [10, 20]: 0%
pest or weed control at 31 g/ha [10, 21]: 35%
pest or weed control at 125 g/ha [10, 23]: 95%
pest or weed control at 62 g/ha ([10]; pre-emergence, Preemergence): 25%
plant injury at 16 g/ha (soybean (Glycine max); [16]): 95%
plant injury at 31 g/ha (soybean (Glycine max); [17]): 95%
plant injury at 62 g/ha (soybean (Glycine max); [18]): 95%
plant injury at 125 g/ha (soybean (Glycine max); [19]): 95%
plant injury at 16 g/ha (soybean (Glycine max); [20]): 0%
plant injury at 31 g/ha (soybean (Glycine max); [21]): 0%
plant injury at 125 g/ha (soybean (Glycine max); [23]): 40%
plant injury at 62 g/ha (soybean (Glycine max); pre-emergence, Preemergence): 15%
pest or weed control at 16 g/ha ([11]; 16 g ai/ha Preemergence): 0%
pest or weed control at 31 g/ha ([11]; 31 g ai/ha Preemergence): 0%
pest or weed control at 125 g/ha ([11]; 125 g ai/ha Preemergence): 25%
pest or weed control at 62 g/ha ([11]; Preemergence): 0%
pest or weed control at 16 g/ha ([12]; 16 g ai/ha Preemergence): 35%
pest or weed control at 31 g/ha ([12]; 31 g ai/ha Preemergence): 98%
pest or weed control at 125 g/ha ([12]; 125 g ai/ha Preemergence): 100%
pest or weed control at 62 g/ha ([12]; Preemergence): 100%
pest or weed control at 16 g/ha [13, 16]: 95%
pest or weed control at 31 g/ha [13, 17]: 98%
pest or weed control at 62 g/ha [13, 18]: 100%
pest or weed control at 125 g/ha [13, 19]: 100%
pest or weed control at 16 g/ha [13, 20]: 100%
pest or weed control at 31 g/ha [13, 21]: 100%
pest or weed control at 125 g/ha [13, 23]: 100%
pest or weed control at 62 g/ha ([13]; pre-emergence, Preemergence): 100%
pest or weed control at 16 g/ha [14, 16]: 70%
pest or weed control at 31 g/ha [14, 17]: 75%
pest or weed control at 62 g/ha [14, 18]: 80%
pest or weed control at 125 g/ha [14, 19]: 80%
pest or weed control at 16 g/ha [14, 20]: 0%
pest or weed control at 31 g/ha [14, 21]: 0%
pest or weed control at 125 g/ha [14, 23]: 65%
pest or weed control at 62 g/ha ([14]; pre-emergence, Preemergence): 65%
pest or weed control at 16 g/ha ([15]; 16 g ai/ha Preemergence): 0%
pest or weed control at 31 g/ha ([15]; 31 g ai/ha Preemergence): 0%
pest or weed control at 125 g/ha ([15]; 125 g ai/ha Preemergence): 0%
pest or weed control at 62 g/ha ([15]; Preemergence): 0%
